{
  "source": "BindingDB's records for doi:10.1021/jm010212m",
  "about": "(Purdue University, 2001)",
  "data": [
    {"target": "T1, Gag-Pol polyprotein [588-1027]/[588-1147] (Human immunodeficiency virus 1, UniProt P04585)", "T1 construct": "588-1027; 588-1147", "assay": "HIV-1 RT Assay", "settings": "not given", "units": {"IC50": "µM"}, "values": [
      {"smiles": "COC(=O)c1cc(C(=CCCCC(=O)OCC[Si](C)(C)C)c2cc(C)c(OC)c(C(=O)OC)c2)cc(C)c1OC", "note": "[methyl 2-methoxy-5-{1-[4-methoxy-3-(methoxycarbonyl)-5-methylphenyl]-6-oxo-6-[2-(trimethylsilyl)ethoxy]hex-1-en-1-yl}-3-methylbenzoate]", "IC50": "> 100"},
      {"smiles": "CNC(=S)NCCC=C(c1cc(Cl)c(OC)c(C(=O)OC)c1)c1cc(Cl)c(OC)c(C(=O)OC)c1", "note": "[methyl 3-chloro-5-{1-[3-chloro-4-methoxy-5-(methoxycarbonyl)phenyl]-4-[(methylcarbamothioyl)amino]but-1-en-1-yl}-2-methoxybenzoate]", "IC50": "> 100"},
      {"smiles": "COC(=O)c1cc(C(=CCCNC(C)=O)c2cc(Cl)c(OC)c(C(=O)OC)c2)cc(Cl)c1OC", "note": "[Methyl 5-{4-(Acetylamino)-1-[3-chloro-4-methoxy-5-(methoxycarbonyl)phenyl]but-1-enyl}-3-chloro-2-methoxybenzoate]", "IC50": "> 100"},
      {"smiles": "COC(=O)c1cc(C(=CCCCC(OC)OC)c2cc(Cl)c(OC)c(C(=O)OC)c2)cc(Cl)c1OC", "note": "[Alkenyldiarylmethane (ADAM) 38a]", "IC50": "> 100"},
      {"smiles": "CCNC(=O)NCCC=C(c1cc(Cl)c(OC)c(C(=O)OC)c1)c1cc(Cl)c(OC)c(C(=O)OC)c1", "note": "[methyl 3-chloro-5-{1-[3-chloro-4-methoxy-5-(methoxycarbonyl)phenyl]-4-[(ethylcarbamoyl)amino]but-1-en-1-yl}-2-methoxybenzoate]", "IC50": "> 100"},
      {"smiles": "COC(=O)c1cc(C(=CCCCC(=O)N2CCCCC2)c2cc(Cl)c(OC)c(C(=O)OC)c2)cc(Cl)c1OC", "note": "[6,6-Bis(3-chloro-4-methoxy-5-methoxycarbonylphenyl)-1-piperidylhex-5-en-1-one]", "IC50": "> 100"}
    ]},
    {"target": "T1, Gag-Pol polyprotein [588-1027]/[588-1147]", "assay": "HIV-1 RT Assay", "settings": "pH 7.9", "units": {"IC50": "µM"}, "values": [
      {"smiles": "COC(=O)c1cc(C(=CCCCc2ccccc2)c2cc(Cl)c(OC)c(C(=O)OC)c2)cc(Cl)c1OC", "note": "[1,1-Bis[3-chloro-4-methoxy-5-(methoxycarbonyl)phenyl]-5-phenyl-1-pentene]", "IC50": "> 100"},
      {"smiles": "COC(=O)CCCC=C(c1cc(C(=O)OC)c(OC)c(C(F)(F)F)c1)c1cc(C(=O)OC)c(OC)c(C(F)(F)F)c1", "note": "[Alkenyldiarylmethane (ADAM) 18a]", "IC50": "> 200"},
      {"smiles": "COC(=O)c1cc(C(=CCCCC(=O)OC(C)C)c2cc(Cl)c(OC)c(C(=O)OC)c2)cc(Cl)c1OC", "note": "[Alkenyldiarylmethane (ADAM) 25a]", "IC50": "> 100"},
      {"smiles": "COC(=O)c1cc(C(=CCCCc2ccccc2)c2cc(Br)c(OC)c(C(=O)OC)c2)cc(Br)c1OC", "note": "[1,1-Bis[3-bromo-4-methoxy-5-(methoxycarbonyl)phenyl]-5-phenyl-1-pentene]", "IC50": "> 100"}
    ]}
  ]
}
